According to article PMC9017349, “Spiropyrimidinetriones: a Class of DNA Gyrase Inhibitors with Activity against Mycobacterium tuberculosis and without Cross-Resistance to Fluoroquinolones” (Antimicrobial Agents and Chemotherapy, 2022):
≈ marks a conversion by molar mass, not a printed value.

Tests used:
[1] = system: M. tuberculosis DNA gyrase GyrA, A90V; format: cell-based, Mycobacterium tuberculosis
[2] = system: M. tuberculosis DNA gyrase GyrA, G88C; format: cell-based, Mycobacterium tuberculosis
[3] = system: M. tuberculosis ATCC 35838 (Rif resistance); assay: microbe, parasite or virus in culture; format: cell-based; details: Mycobacterium tuberculosis, ATCC35838
[4] = system: M. tuberculosis ATCC 35826 (CS resistance); assay: microbe, parasite or virus in culture; format: cell-based; details: Mycobacterium tuberculosis, ATCC35826
[5] = system: M. tuberculosis ATCC 3583 (INH resistance); assay: microbe, parasite or virus in culture; format: cell-based; details: Mycobacterium tuberculosis, ATCC3583, read-out: MIC90, ATCC 3583 (INH resistance)
[6] = system: M. tuberculosis MmpL3, G253E; format: cell-based, Mycobacterium tuberculosis
[7] = system: M. tuberculosis QcrB D317T; format: cell-based, Mycobacterium tuberculosis
[8] = system: M. tuberculosis MmpL3, G758A/G253E; format: cell-based, Mycobacterium tuberculosis

## Cc1nnc(-c2noc3c(F)c4c(cc23)CC2(C(=O)NC(=O)NC2=O)[C@H]2[C@H](C)O[C@H](C)CN42)o1 [Compound 22]
[1]
  MIC90, DNA gyrase GyrA, A90V: 0.98 µM (≈ 0.461 µg/mL)
[2]
  MIC90, DNA gyrase GyrA, G88C: 0.98 µM (≈ 0.461 µg/mL)

## NNC(=O)c1ccncc1 [Isoniazid, isoniazid]
[3]
  MIC90: 7.8 µM (≈ 1.07 µg/mL)
[4]
  MIC90: 3.4 µM (≈ 0.466 µg/mL)
[5]
  MIC90: > 62.5 µM

## C[C@H]1COc2c(N3CCN(C)CC3)c(F)cc3c(=O)c(C(=O)O)cn1c23 [Levofloxacin]
[1]
  MIC90, DNA gyrase GyrA, A90V: 16 µM (≈ 5.78 µg/mL)
[2]
  MIC90, DNA gyrase GyrA, G88C: 2.0 µM (≈ 0.723 µg/mL)

## COc1c(N2C[C@@H]3CCCN[C@@H]3C2)c(F)cc2c(=O)c(C(=O)O)cn(C3CC3)c12 [Moxifloxacin, moxifloxacin]
[1]
  MIC90, DNA gyrase GyrA, A90V: 7.8 µM (≈ 3.13 µg/mL)
[2]
  MIC90, DNA gyrase GyrA, G88C: 0.49 µM (≈ 0.197 µg/mL)

## CO[C@H]1/C=C/O[C@@]2(C)Oc3c(C)c(O)c4c(O)c(c(/C=N/N5CCN(C)CC5)c(O)c4c3C2=O)NC(=O)/C(C)=C\C=C\[C@H](C)[C@H](O)[C@@H](C)[C@@H](O)[C@@H](C)[C@H](OC(C)=O)[C@@H]1C [Rif, rifampicin]
[1]
  MIC90, DNA gyrase GyrA, A90V: 0.0023 µM (≈ 0.00189 µg/mL)
[6]
  MIC90, MmpL3, G253E: 0.001 µM (≈ 0.000823 µg/mL)
[7]
  MIC90, QcrB D317T: 0.0046 µM (≈ 0.00379 µg/mL)
[3]
  MIC90: > 0.1 µM
[4]
  MIC90: 0.001 µM (≈ 0.000823 µg/mL)
[8]
  MIC90, MmpL3, G758A/G253E: 0.001 µM (≈ 0.000823 µg/mL)
[5]
  MIC90: 0.006 µM (≈ 0.00494 µg/mL)
[2]
  MIC90, DNA gyrase GyrA, G88C: 0.0023 µM (≈ 0.00189 µg/mL)

## CC(C)=CCC/C(C)=C/CNCCNC1C2CC3CC(C2)CC1C3 (stereo not shown) [SQ109]
[6]
  MIC90, MmpL3, G253E: 2.0 µM (≈ 0.661 µg/mL)
[8]
  MIC90, MmpL3, G758A/G253E: 2.0 µM (≈ 0.661 µg/mL)
